The source of these data is ChEMBL document CHEMBL1201862, “PubChem BioAssay data set” (2004).

The target in test [1] is Melanin-concentrating hormone receptor 1 (Homo sapiens, UniProt Q99705). The test can be described thus: Fluorescence-based counterscreen for antagonists of the G-protein coupled receptor 7 (GPR7): cell-based high throughput dose response assay to identify antagonists of the melanin-concentrating hormone receptor 1 (MCHR1). It counts as functional.
Another test has as its target Bcl-2-like protein 10 (Homo sapiens, UniProt Q9HD36). Put plainly: Bcl-B/TR3 peptide binding disruption – biochemical, fluorescence polarization, FITC-TR3 peptide, selectivity assay for Bfl-1 inhibitor project, primary screen (AID 748). For orientation: Fluorescence polarisation rises when a labelled molecule tumbles more slowly, as on binding a larger partner.
The target of test [2] is Protein Rev (Human immunodeficiency virus type 1 group M subtype B (isolate WMJ22)(HIV-1), UniProt P05866). Put plainly: inhibitors of Rev protein–RRE RNA complex – biochemical, protein-RNA interaction, dose response (AID 842). Details: species or system Human immunodeficiency virus 1.
Chain of Protein Rev (Human immunodeficiency virus type 1 group M subtype B (isolate WMJ22)(HIV-1), UniProt P05866) (P05866 whole entry): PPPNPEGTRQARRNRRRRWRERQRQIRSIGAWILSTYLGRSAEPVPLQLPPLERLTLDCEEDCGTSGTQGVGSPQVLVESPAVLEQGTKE
A further test deals with Vero. The test can be described thus: mammalian cell viability reduction – secondary assay, cytotoxicity control for West Nile virus antiviral project, dose response (AID 1650). It counts as functional. Conditions: Chlorocebus sabaeus.
The target in test [3] is T1, Short transient receptor potential channel 4 (Mus musculus, UniProt Q9QUQ5).
T1 sequence (Q9QUQ5 whole entry): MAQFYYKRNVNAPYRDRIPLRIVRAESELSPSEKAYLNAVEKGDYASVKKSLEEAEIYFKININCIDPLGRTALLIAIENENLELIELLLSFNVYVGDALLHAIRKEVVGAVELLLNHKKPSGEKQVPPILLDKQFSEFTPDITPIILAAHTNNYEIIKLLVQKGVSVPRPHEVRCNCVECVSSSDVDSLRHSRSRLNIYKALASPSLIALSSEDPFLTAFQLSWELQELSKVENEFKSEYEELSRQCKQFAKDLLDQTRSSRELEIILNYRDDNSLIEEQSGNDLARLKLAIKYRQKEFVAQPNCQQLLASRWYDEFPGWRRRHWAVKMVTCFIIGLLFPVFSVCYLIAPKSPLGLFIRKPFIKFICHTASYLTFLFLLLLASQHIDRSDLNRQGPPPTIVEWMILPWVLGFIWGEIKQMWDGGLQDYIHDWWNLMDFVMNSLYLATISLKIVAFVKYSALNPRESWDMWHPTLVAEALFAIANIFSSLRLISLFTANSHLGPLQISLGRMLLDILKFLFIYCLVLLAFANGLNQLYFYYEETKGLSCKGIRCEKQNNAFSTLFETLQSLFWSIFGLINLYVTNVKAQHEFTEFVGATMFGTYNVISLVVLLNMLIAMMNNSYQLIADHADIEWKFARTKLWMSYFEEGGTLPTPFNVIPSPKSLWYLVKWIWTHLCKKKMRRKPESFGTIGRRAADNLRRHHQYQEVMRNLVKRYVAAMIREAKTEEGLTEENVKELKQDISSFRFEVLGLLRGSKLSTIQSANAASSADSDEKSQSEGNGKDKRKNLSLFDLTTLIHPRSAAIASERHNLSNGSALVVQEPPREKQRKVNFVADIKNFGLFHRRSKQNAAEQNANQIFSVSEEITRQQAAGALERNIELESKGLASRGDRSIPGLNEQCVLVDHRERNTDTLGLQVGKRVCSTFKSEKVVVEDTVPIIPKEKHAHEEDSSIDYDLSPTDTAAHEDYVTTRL
Put plainly: block of DAMGO-driven TRPC4 calcium entry – cell-based, HEK293 TRPC4/mu-opioid, Fluo-4 calcium, dose response (AID 434942).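 Further: potency of inhibitors blocking the TRPC4 calcium response.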 It counts as functional.

The target in test [4] is T2, DNA repair and recombination protein RAD54-like (Homo sapiens, UniProt Q92698).
T2 sequence (Q92698 whole entry): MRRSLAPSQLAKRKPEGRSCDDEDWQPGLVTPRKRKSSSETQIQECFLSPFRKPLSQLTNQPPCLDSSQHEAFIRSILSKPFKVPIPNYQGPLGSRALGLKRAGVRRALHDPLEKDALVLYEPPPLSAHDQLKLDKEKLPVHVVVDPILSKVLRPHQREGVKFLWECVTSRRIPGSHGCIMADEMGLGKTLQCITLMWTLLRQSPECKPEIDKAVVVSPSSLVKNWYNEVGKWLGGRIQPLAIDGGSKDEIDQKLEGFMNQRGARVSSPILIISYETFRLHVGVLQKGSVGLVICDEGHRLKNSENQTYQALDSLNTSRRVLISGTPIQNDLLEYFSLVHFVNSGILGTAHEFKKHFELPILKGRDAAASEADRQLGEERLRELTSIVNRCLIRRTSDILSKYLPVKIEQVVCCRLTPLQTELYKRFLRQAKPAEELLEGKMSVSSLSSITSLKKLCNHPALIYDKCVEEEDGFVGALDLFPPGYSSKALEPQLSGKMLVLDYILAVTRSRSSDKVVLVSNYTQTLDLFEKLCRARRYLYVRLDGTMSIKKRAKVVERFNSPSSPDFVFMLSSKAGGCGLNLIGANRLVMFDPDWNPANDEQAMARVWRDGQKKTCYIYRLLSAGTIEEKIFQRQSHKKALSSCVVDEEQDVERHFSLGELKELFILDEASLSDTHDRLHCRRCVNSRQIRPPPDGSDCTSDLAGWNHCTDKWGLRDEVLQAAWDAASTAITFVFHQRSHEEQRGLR
The test can be described thus: RAD54 Holliday junction migration blockers – biochemical, fluorescence, cherry-picked samples, dose series, confirmation (AID 651657). In kind it is functional.

The target in test [5] is T3, DNA repair protein RAD52 homolog (Homo sapiens, UniProt P43351).
T3 sequence (P43351 whole entry): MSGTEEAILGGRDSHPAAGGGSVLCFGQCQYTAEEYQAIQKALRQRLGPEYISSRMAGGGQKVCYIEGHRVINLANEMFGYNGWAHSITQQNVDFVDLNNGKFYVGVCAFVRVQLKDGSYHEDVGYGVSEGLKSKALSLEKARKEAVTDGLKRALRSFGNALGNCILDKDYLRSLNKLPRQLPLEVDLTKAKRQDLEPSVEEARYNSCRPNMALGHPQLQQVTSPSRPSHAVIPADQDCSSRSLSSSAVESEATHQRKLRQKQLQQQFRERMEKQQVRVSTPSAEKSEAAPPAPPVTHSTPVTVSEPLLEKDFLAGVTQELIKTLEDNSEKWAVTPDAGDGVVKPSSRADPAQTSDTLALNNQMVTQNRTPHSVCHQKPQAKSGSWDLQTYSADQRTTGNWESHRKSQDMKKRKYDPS
It counts as functional, biochemical.

Test [6] has as its target T4, Eukaryotic translation initiation factor 2-alpha kinase 3 (Homo sapiens, UniProt Q9NZJ5). The test can be described thus: Dose response cell-based high-throughput screening assay to measure PERK inhibition. [Related pubchem assays: 1416 ]. It counts as functional.
For test [7], the target named is T4, Eukaryotic translation initiation factor 2-alpha kinase 3. Put plainly: Counterscreen assay for PERK inhibitors: Dose response cell-based high throughput screening assay to measure inhibition of PERK at 6 hours. [Related pubchem assays: 1522, 1416 ]. It counts as functional.
The target in another test is Tumor necrosis factor (Homo sapiens, UniProt P01375). The test can be described thus: analog potency on TNFa NF-kB signaling – cell-based, revised, SAR follow-up (AID 2337). In kind it is functional.
Chain of Tumor necrosis factor (P01375 whole entry, the tested form may be a part): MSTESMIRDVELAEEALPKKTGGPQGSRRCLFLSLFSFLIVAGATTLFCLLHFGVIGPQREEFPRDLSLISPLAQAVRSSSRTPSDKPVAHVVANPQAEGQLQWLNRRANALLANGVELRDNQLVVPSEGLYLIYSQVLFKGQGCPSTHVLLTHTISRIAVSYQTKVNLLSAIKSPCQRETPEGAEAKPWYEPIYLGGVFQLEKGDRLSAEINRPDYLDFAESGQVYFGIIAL
Test [8] addresses Nucleotide-binding oligomerization domain-containing protein 1 (Homo sapiens, UniProt Q9Y239). Put plainly: blockers of NOD1 pathway activity – revised, SAR follow-up (AID 2333). It counts as functional.
Test [9] concerns the target Nucleotide-binding oligomerization domain-containing protein 2 (Homo sapiens, UniProt Q9HC29). Put plainly: PubChem AID 2334. It counts as functional.
Another test concerns HEK293. Put plainly: cells. The settings on record: Homo sapiens.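 Further: cells exposed to compound for 14 hours overnight before viability readout.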
Test [10] addresses Protein phosphatase methylesterase 1 (Homo sapiens, UniProt Q9Y570). Put plainly: endogenous PME-1 and serine hydrolase inhibition – cell lysate, mouse brain cytosol, FP-rhodamine, gel ABPP, selectivity assay for PME-1 inhibitor project, dose response, panel member PME-1 Assay Panel member description: Inhibition of endogenously expressed PME-1 (AID 2366).
The target of test [11] is Protein Rev (Human immunodeficiency virus type 1 group M subtype B (isolate HXB2)(HIV-1), UniProt P04618). The test can be described thus: blockers of HIV Rev/RRE RNA complex – biochemical, fluorescence polarization, HIV-1, dose response (AID 434976). Details: species or system Human immunodeficiency virus 1.
Chain of Protein Rev (Human immunodeficiency virus type 1 group M subtype B (isolate HXB2)(HIV-1), UniProt P04618) (P04618 whole entry): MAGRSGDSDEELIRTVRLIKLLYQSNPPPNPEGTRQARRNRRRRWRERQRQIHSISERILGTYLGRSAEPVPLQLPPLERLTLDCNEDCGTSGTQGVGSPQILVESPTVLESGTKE
Test [12] has as its target Female germline-specific tumor suppressor gld-1 (Caenorhabditis elegans, UniProt Q17339). Put plainly: blockers of GLD-1/TGE RNA complex formation – biochemical, fluorescence polarization, C. elegans, dose response (AID 2802).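 Further: fluorescence polarization of labeled TGE RNA bound by purified gld-1 protein.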
Test [13] concerns the target T5, Polyadenylate-binding protein 1 (Homo sapiens, UniProt P11940). The test can be described thus: MLLE binding blockers, Cy5 peptide tracer – biochemical, fluorescence polarization, Cy5-PAM2 peptide, secondary, miRNA deadenylation inhibitor project, dose response (AID 602260). In kind it is functional. The settings on record: read-out: IC50_Mean.
The target of test [14] is T5, Polyadenylate-binding protein 1. The test can be described thus: MLLE domain peptide-binding blockers, IC50 – biochemical, fluorescence polarization, FITC-PAM2 peptide, dose response (AID 602259). It counts as functional. Conditions: read-out: IC50_Mean.

Active and inactive are the calls of the source.

T4 sequence (Q9NZJ5 whole entry): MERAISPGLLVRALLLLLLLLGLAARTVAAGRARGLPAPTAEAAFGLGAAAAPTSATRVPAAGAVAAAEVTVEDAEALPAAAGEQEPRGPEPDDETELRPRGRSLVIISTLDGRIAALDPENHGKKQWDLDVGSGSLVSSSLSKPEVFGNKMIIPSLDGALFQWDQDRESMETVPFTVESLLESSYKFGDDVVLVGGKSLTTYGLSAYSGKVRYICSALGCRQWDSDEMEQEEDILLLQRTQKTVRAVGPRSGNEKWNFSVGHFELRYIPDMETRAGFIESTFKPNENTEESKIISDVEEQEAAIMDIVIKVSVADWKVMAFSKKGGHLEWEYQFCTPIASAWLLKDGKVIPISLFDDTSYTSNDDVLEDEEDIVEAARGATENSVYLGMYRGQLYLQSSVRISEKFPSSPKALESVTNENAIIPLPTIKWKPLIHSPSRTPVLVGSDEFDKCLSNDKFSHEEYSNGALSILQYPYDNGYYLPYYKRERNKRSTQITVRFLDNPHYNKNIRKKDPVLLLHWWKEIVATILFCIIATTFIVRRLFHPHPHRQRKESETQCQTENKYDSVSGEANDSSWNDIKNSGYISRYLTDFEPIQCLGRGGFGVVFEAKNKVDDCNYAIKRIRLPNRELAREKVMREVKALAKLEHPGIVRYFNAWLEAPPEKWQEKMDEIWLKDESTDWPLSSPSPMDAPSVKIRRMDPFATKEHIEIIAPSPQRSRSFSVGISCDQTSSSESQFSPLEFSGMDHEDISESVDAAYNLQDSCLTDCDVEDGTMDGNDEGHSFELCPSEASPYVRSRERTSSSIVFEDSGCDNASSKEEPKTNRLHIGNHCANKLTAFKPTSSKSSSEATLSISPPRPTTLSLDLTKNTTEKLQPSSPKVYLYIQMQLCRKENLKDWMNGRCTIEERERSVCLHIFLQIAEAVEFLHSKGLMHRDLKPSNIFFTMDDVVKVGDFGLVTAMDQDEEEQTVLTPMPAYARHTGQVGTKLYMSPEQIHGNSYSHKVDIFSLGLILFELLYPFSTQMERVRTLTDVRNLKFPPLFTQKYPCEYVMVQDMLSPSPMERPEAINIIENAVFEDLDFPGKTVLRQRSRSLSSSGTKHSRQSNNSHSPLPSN
T5 sequence (P11940 whole entry, the tested form may be a part): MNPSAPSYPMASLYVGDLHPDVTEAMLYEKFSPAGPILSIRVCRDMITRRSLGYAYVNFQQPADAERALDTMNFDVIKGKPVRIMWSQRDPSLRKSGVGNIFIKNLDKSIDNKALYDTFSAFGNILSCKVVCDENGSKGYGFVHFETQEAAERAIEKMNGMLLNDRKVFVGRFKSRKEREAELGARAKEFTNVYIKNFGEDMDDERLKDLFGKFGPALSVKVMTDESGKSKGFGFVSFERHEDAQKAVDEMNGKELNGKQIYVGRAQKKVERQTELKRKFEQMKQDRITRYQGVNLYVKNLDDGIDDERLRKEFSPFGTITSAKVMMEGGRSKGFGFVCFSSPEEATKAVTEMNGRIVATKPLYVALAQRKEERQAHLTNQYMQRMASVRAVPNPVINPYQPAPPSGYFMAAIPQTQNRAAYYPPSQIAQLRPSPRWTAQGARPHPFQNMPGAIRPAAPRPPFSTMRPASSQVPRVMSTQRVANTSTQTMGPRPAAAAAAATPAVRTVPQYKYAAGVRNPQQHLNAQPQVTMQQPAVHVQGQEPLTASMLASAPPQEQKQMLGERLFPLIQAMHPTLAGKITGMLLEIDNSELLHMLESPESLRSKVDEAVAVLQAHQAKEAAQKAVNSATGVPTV
Chain of Nucleotide-binding oligomerization domain-containing protein 1 (Q9Y239 whole entry, the tested form may be a part): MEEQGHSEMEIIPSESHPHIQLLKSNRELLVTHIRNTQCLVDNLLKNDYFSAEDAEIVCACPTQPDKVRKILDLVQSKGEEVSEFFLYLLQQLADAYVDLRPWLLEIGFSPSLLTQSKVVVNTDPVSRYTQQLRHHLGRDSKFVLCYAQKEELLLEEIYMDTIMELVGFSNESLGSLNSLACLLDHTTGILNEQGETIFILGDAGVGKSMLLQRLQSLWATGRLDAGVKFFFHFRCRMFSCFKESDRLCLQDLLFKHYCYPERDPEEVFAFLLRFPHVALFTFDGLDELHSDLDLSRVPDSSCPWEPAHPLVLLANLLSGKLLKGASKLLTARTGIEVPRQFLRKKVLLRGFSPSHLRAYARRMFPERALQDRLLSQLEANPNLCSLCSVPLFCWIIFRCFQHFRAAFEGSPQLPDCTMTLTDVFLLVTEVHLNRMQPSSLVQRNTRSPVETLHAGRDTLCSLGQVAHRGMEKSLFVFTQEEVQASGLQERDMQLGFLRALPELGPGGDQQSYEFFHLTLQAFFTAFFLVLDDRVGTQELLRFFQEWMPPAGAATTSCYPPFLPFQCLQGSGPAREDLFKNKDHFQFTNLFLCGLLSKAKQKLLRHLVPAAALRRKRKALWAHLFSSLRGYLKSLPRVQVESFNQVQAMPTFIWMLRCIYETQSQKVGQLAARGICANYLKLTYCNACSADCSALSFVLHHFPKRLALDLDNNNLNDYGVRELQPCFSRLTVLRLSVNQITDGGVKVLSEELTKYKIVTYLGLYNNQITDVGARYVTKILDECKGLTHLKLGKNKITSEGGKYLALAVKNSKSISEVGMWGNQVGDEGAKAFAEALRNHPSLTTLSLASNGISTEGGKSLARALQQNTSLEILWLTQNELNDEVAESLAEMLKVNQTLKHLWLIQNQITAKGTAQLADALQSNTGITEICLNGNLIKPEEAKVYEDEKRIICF
Chain of Protein phosphatase methylesterase 1 (Q9Y570 whole entry): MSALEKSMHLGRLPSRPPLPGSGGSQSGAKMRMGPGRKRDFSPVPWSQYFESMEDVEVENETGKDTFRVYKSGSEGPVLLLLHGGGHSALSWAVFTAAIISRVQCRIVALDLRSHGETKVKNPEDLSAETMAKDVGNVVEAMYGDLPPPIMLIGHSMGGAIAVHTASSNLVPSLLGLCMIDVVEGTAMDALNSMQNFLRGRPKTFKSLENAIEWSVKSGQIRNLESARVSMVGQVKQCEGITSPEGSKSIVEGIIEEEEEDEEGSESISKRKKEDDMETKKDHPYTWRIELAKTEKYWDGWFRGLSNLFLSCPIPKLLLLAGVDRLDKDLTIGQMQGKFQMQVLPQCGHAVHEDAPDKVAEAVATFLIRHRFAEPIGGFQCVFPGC
Chain of Female germline-specific tumor suppressor gld-1 (Q17339 whole entry): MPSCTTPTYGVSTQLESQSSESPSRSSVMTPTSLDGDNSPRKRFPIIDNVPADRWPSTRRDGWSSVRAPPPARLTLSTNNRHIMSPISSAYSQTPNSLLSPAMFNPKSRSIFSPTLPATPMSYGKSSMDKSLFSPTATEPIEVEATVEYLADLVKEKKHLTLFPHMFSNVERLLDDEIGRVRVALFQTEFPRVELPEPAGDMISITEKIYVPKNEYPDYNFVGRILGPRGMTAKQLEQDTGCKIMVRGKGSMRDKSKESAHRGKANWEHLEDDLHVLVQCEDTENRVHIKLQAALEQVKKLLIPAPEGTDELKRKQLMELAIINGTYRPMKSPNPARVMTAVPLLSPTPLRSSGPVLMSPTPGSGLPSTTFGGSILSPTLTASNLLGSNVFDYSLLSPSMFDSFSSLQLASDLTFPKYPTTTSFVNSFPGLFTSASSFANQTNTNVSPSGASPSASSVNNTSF
Chain of Melanin-concentrating hormone receptor 1 (Q99705 whole entry): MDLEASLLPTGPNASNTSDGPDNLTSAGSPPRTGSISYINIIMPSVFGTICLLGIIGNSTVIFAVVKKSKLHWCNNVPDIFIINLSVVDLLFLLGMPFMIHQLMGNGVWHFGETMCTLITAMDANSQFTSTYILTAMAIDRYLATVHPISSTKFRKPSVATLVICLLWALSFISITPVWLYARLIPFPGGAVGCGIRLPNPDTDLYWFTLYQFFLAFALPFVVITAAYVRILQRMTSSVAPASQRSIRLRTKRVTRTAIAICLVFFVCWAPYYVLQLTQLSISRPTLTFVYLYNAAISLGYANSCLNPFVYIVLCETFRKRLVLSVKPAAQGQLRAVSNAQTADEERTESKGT
Chain of Bcl-2-like protein 10 (Q9HD36 whole entry): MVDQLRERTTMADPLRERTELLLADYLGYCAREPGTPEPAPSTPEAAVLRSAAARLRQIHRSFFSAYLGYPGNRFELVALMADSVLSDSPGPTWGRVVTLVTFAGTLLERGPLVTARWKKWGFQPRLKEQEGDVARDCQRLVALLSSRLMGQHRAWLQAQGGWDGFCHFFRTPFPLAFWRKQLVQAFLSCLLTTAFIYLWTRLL

Regarding `CCN(CC)CCNC(=O)CCc1c(C)nc2c(c(C)nn2-c2ccc(C)cc2)c1C`, the IC50 in test [1] was 11.2 µM (not active).
Regarding `O=C(C[n+]1ccc(C(=O)NN=Cc2ccc(O)cc2)cc1)c1ccccc1`, the IC50 at Bcl-2-like protein 10 was 70.4 µM (inactive).
Turning to `CCc1ccc2nc3nc(C)cc(C)c3c(N)c2c1`, the IC50 against Protein Rev [2] was 58.8 µM (not active). Further, the CC50 in the test with Vero was 21.6 µM (active). For the same compound, in [3], the 50% effective concentration (EC50) is 3.35 µM (active). Besides, the results for the concentration at half-maximal activity (AC50) in test [4] and in test [5] were 9.59 µM (active) and 3.58 µM (active), respectively.
For `Cn1c(=O)c2c(SCc3ccccc3)nc(-c3ccco3)nc2n(C)c1=O`, the 50% effective concentration (EC50) in test [6] and in test [7] was > 55.7 µM (not active) each time.
For `CCOC(=O)c1c(NC(=O)CN2CCOCC2)sc2c1CC(C)(C)OC2`, the IC50 (on Tumor necrosis factor; in test [8]; in test [9]; in the test on HEK293) was > 20 µM (inactive) in each case.
Take `CS(=O)(=O)/C(C#N)=C/c1cccn1S(=O)(=O)c1cccc2ccccc12`: the IC50 in test [10] is > 20 µM (inactive).
Turning to `Nc1nnnn1/N=C/c1cc(Cl)ccc1O`, the IC50 was > 75.3 µM (not active) against Protein Rev [11], 6.2 µM (active) in test [12], 35.1 µM (inactive) in test [13] and 38.8 µM (inactive) in [14].

For orientation: CC50 means the concentration at which the toxic effect on the cells reaches its halfway point. As usually defined, the EC50 is the concentration needed to bring the measured effect to its halfway point. One may read the AC50 as the midpoint of the concentration-response curve, whichever way the signal moves.
